Publication PMC6260965 (Structure (London, England : 1993), 2018)
Like-named read-outs stand apart in the source and are kept apart here.

Tests used:
NS3/4A protease D168A [1] = target: NS3/4A protease D168A (Hepatitis C virus genotype 1a, UniProt P27958, D1194A); experiment: biochemical; type: biochemical, HCV
[2] = tested on: NS3/4A protease Y56H/D168A; experiment: Enzyme inhibition assay, Y56H/D168A protease; type: biochemical, HCV; conditions: for loss in potency in enzyme inhibition assays: Y56H/D168A relative to WT protease
NS3/4A protease Y56H = NS3/4A protease Y56H (Hepatitis C virus genotype 1a, UniProt P27958, Y1082H); experiment: Enzyme inhibition assay, Y56H protease; type: biochemical, HCV
NS3/4A protease D168A [3] = experiment: biochemical; type: biochemical, HCV; conditions: D168A relative to WT protease
[4] = target: NS3/4A protease Y56H/D168A (Hepatitis C virus genotype 1a, UniProt P27958, D1194A/Y1082H); experiment: Enzyme inhibition assay, Y56H/D168A protease; type: biochemical, HCV
[5] = tested on: NS3/4A protease Y56H/D168A versus sum of Y56H and D168A; experiment: Double mutant cycle analysis from inhibition constants; conditions: calculated from measured Ki; negative coupling
[6] = tested on: GT3 double substitution variant Y56H/Q168R; conditions: GT3 Y56H/Q168R selected in vitro; ref Ng et al., 2017; cited from earlier work
[7] = tested on: HCV Con1 (genotype 1b) reporter replicon, H77 NS3 protease region with D168A; experiment: Cell-based drug susceptibility; conditions: D168A compared to WT
[8] = tested on: HCV Con1 (genotype 1b) reporter replicon, H77 NS3 protease region with Y56H/D168A; experiment: Cell-based drug susceptibility; conditions: Y56H/D168A compared to WT

Row | SMILES | loss in potency in enzyme inhibition assays [2] | potency loss in enzyme inhibition assays (NS3/4A protease D168A [3]) [fold] | difference in ΔΔG for the double mutant compared to sum of the single mutants [5] | lower potency in replicon assays [8] [fold] | other results
1 | CCc1nc2ccc(OC)cc2nc1O[C@@H]1C[C@H]2C(=O)N[C@]3(C(=O)NS(=O)(=O)C4CC4)C[C@H]3/C=C\CCCCC[C@H](NC(=O)OC(C)(C)C)C(=O)N2C1 [5172-mcP1P3] | 200–400 fold |  |  |  | Ki (NS3/4A protease D168A [1]; read-out: inhibition constant (Ki), D168A variant): 82.4 nM
2 | CC(C)(C)OC(=O)N[C@H]1CCCCC/C=C\[C@@H]2C[C@@]2(C(=O)NS(=O)(=O)C2CC2)NC(=O)[C@@H]2C[C@@H](OC(=O)N3Cc4cccc(F)c4C3)CN2C1=O [danoprevir] | 500 fold | 200 | ~ 0.06 kcal/mol |  | Ki (NS3/4A protease Y56H): 3 nM; Ki (NS3/4A protease D168A [1]): 199 nM; Ki [4]: 520 nM; additional reduction in potency with Y56H ([2]; Y56H/D168A relative to D168A, enzyme inhibition): 2.5 fold
3 | CC(C)(C)[C@@H]1NC(=O)O[C@@H]2CCC[C@H]2OC/C=C/C(F)(F)c2nc3ccccc3nc2O[C@@H]2C[C@@H](C(=O)N[C@]3(C(=O)NS(=O)(=O)C4(C)CC4)C[C@H]3C(F)F)N(C2)C1=O [glecaprevir] |  |  |  |  | loss in potency [6]: ~1400 fold
4 | C=C[C@@H]1C[C@]1(NC(=O)[C@@H]1C[C@@H]2CN1C(=O)[C@H](C(C)(C)C)NC(=O)O[C@@H]1C[C@H]1CCCCCc1nc3ccc(OC)cc3nc1O2)C(=O)NS(=O)(=O)C1CC1 [grazoprevir] | 2500 fold | > 200 | 1 to 2 kcal/mol | 1923 | potency loss in replicon assays [7]: over 100 fold
5 | Cc1cnc(C(=O)N[C@H]2CCCCC/C=C\[C@@H]3C[C@@]3(C(=O)NS(=O)(=O)C3CC3)NC(=O)[C@@H]3C[C@@H](Oc4nc5ccccc5c5ccccc45)CN3C2=O)cn1 [paritaprevir] | 8500 fold |  | 1 to 2 kcal/mol | 2941 | 
